Measurements published in EP0109294A2, “Cephalosporin esters” (Takeda Chemical Industries, Ltd., priority 1982, dated 1984).
Structures can show the parent of a compound that is named as a salt.

Test: in vivo
Design: species or system mice
Details: mouse, 100 mg/kg; for Bio-availability / AUC / Plasma level of non-ester 2 hr: 120 min; for Plasma level of non-ester 0.25 hr / Plasma level of non-ester 0.5 hr / Plasma level of non-ester 1 hr / AUC / Plasma level of non-ester 2 hr: po; for Plasma level of non-ester 0.25 hr: 15 min; for Plasma level of non-ester 0.5 hr: 30 min; for Plasma level of non-ester 1 hr: 60 min
Description: The compounds produced according to the Examples (Compound Nos. 2, 4, 6 and 8) and, as a reference control, pivaloyloxymethyl ester of compound (II) (hereinafter referred to as Compound A) are orally administered to mice at a common dose level of 100 mg/kg (as the non-ester, i.e. compound (II) per mouse). After administration, the plasma concentrations of compound (II) at 0.25, 0.5, 1.0 and 2.0 hours are determined by the cup assay method (using Proteus mirabilis Eb 313 as the test organism) and the area under plasma concentration- time curve (AUC) over 0 to 2 hours is calculated.
As a control, compound (II) is subcutaneously administered to mice at the same dose and the AUC is similarly calculated.

Row | Compound | Bio-availability | Plasma level of non-ester 0.25 hr [µg/mL] | Plasma level of non-ester 0.5 hr [µg/mL] | Plasma level of non-ester 1 hr [µg/mL] | AUC [µg·h/mL] | Plasma level of non-ester 2 hr [µg/mL] | AUC at 2 h (sc) [µg·h/mL] | concentration at 0.25 h (sc) [µg/mL] | concentration at 0.5 h (sc) [µg/mL] | concentration at 1 h (sc) [µg/mL] | concentration at 2 h (sc) [µg/mL] | Bio-availability (sc)
1 | CN(C)CCn1nnnc1SCC1=C(C(=O)OCOC(=O)C(C)(C)C)N2C(=O)[C@@H](NC(=O)Cc3csc(N)n3)[C@H]2SC1 [Compound A, pivaloyloxymethyl ester of compound (II), reference compound] | 41.8 | 21.0 | 16.2 | 6.1 | 16.2 | 0.6 |  |  |  |  |  | 
2 | CC(OC(=O)CC1CCCCC1)OC(=O)C1=C(CSc2nnnn2CCN(C)C)CS[C@@H]2[C@H](NC(=O)Cc3csc(N)n3)C(=O)N12 (stereo partly drawn) [Compound No. 2, 1-(Cyclohexylacetoxy)ethyl 7β-[2-(2-aminothiazol-4-yl)acetamido]-3-[[[1-(2-dimethylaminoethyl)-1H-tetrazol-5-yl]thio]methyl] ceph-3-em-4-carboxylate dihydrochloride] | 107.7 | 43.9 | 45.2 | 16.4 | 41.8 | 3.1 |  |  |  |  |  | 
3 | CC(OC(=O)C1=C(CSc2nnnn2CCN(C)C)CS[C@@H]2[C@H](NC(=O)Cc3csc(N)n3)C(=O)N12)OC(=O)C1CCCCC1 (stereo partly drawn) [Compound No. 4, 1-(Cyclohexanecarbonyloxy)ethyl 7β-[2-(2-amino-thiazol-4-yl)acetamido]-3-[[[1-(2-dimethylaminoethyl)-1H-tetrazol-5-yl]thio]methyl] ceph-3-em-4-carboxylate dihydrochloride] | 76.2 | 43.6 | 31.7 | 8.38 | 29.6 | 1.01 |  |  |  |  |  | 
4 | CC(OC(=O)CC1CCCC1)OC(=O)C1=C(CSc2nnnn2CCN(C)C)CS[C@@H]2[C@H](NC(=O)Cc3csc(N)n3)C(=O)N12 (stereo partly drawn) [Compound No. 6, 1-(Cyclopentylacetoxy)ethyl 7β-[2-(2-aminothiazol-4-yl)acetamido]-3-[[[1-(2-dimethylaminoethyl)-1H-tetrazol-5-yl]thio]methyl] ceph-3-em-4-carboxylate dihydrochloride] | 82.2 | 23.2 | 27.2 | 16.9 | 31.9 | 6.46 |  |  |  |  |  | 
5 | CC(OC(=O)C1=C(CSc2nnnn2CCN(C)C)CS[C@@H]2[C@H](NC(=O)Cc3csc(N)n3)C(=O)N12)OC(=O)C1CCCC1 (stereo partly drawn) [Compound No. 8, 1-(Cyclopentanecarbonyloxy)ethyl 7β-[2-(2-aminothiazol-4-yl)acetamido]-3-[[[1-(2-dimethylaminoethyl)-1H-tetrazol-5-yl]thio]methyl] ceph-3-em-4-carboxylate dihydrochloride] | 78.3 | 42.5 | 29.9 | 10.5 | 30.4 | 1.35 |  |  |  |  |  | 
6 | CN(C)CCn1nnnc1SCC1=C(C(=O)O)N2C(=O)[C@@H](NC(=O)Cc3csc(N)n3)[C@H]2SC1 [compound (II), 7S-[2-(2-aminothiazol-4-yl)-acetamido]-3-[[[1-(2-dimethylaminoethyl)-1H-tetrazol-5-yl]thio]methyl]ceph-3-em-4-carboxylic acid, reference compound] |  |  |  |  |  |  | 38.8 | 69.2 | 29 | 13.2 | 1.5 | 100
